# “And” between values parts separate entries of the source, which are not always exact repeats. Identical values can stand only once.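 Dose response: 5 concentrations. Exposure: 48 h. Format: 96-well plates. Endpoint: linear interpolation; highest concentration if not reached. GI50 = concentration required for 50% inhibition of growth. At the TGI there is no net growth.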
# Assays:
# Test in all cases: NCI anticancer screen, dose series, 48 h
# MDA-MB-231 breast = test system: MDA-MB-231 breast
# HCT-15 colon = test system: HCT-15 colon
# OVCAR-5 ovarian = test system: OVCAR-5 ovarian
# U251 CNS = test system: U251 CNS
# SK-MEL-5 melanoma = test system: SK-MEL-5 melanoma
# UACC-62 melanoma = test system: UACC-62 melanoma
# NCI/ADR-RES ovarian = test system: NCI/ADR-RES ovarian
# SR leukemia = test system: SR leukemia
SMILES,GI50 (MDA-MB-231 breast),TGI (MDA-MB-231 breast),GI50 (HCT-15 colon),TGI (HCT-15 colon),GI50 (OVCAR-5 ovarian) [µM],TGI (OVCAR-5 ovarian) [µM],GI50 (U251 CNS),TGI (U251 CNS),GI50 (SK-MEL-5 melanoma),TGI (SK-MEL-5 melanoma),GI50 (UACC-62 melanoma),TGI (UACC-62 melanoma),GI50 (NCI/ADR-RES ovarian),TGI (NCI/ADR-RES ovarian),GI50 (SR leukemia) [µM],TGI (SR leukemia)
CN(c1ccc(NC(=O)Nc2c(Cl)cccc2Cl)cc1)c1ccnc(Nc2cccc(CS(C)(=O)=O)c2)n1,4.49 µM,16.9 µM,5.6 µM,> 25 µM,6.2,> 19.5,2.62 µM,9.61 µM,2.79 µM,7.09 µM,3.11 µM,8.36 µM,5.49 µM,> 25 µM,0.303,> 25 µM
O=NNc1ccc2ccccc2n1,,> 100 µM,,> 100 µM,,> 100,,> 100 µM,,> 100 µM,,> 100 µM,,> 100 µM,,> 100 µM
CCCCCCCCn1ccc2cc(NC(=O)Cn3cc(CN4CCCCCC4)nn3)ccc21,1.74 µM,3.47 µM,1.6 µM,3.17 µM,1.82,3.86,1.83 µM,3.29 µM,1.74 µM,3.13 µM,1.93 µM,3.45 µM,1.79 µM,3.56 µM,,
CCCCCCCCCCCCCCCCCCOC[C@H](COP(=O)(O)O[C@H]1[C@H](O)[C@@H](O)[C@H](O)C[C@H]1O)OC,> 100 µM and 13.6 µM,> 100 µM and 27.6 µM,37.2 µM and 14.3 µM,> 100 µM and 28.9 µM,,,33 µM and 5.89 µM,> 100 µM and 19.2 µM,> 100 µM and 18 µM,> 100 µM and 32.3 µM,> 100 µM and 16.4 µM,> 100 µM and 30.1 µM,> 100 µM and 18.3 µM,> 100 µM and 33.5 µM,,45.9 µM and 40.8 µM
C[C@]12CCc3sc(Nc4ccc(OC(F)(F)F)cc4)nc3C1=CC[C@@H]1[C@@H]2CC[C@]2(C)C(=O)CC[C@@H]12,2.42 µM,7.84 µM,1.69 µM,4.1 µM,9.06,40.3,1.09 µM,3.26 µM,2.62 µM,7.41 µM,3.03 µM,10.3 µM,3.93 µM,20.2 µM,2.74,> 100 µM
O=c1[nH]c2ccccc2cc1-c1nc2ccc(Cl)cc2[nH]1,3.25 µM,85.9 µM,2.91 µM,> 100 µM,51.7,> 100,3.87 µM,> 100 µM,3.4 µM,32.5 µM,2.83 µM,> 100 µM,6.09 µM,> 100 µM,,
CNC(=O)OCc1c(COC(=O)NC)c(-c2ccc(-c3ccccc3)cc2)n(C)c1C,,10.2 µM,,9.43 µM,,8.26,,10.9 µM,,14 µM,,5.46 µM,,12.6 µM,,> 100 µM
COc1ccc2c(c1)NC1=C(C(=O)OC1)C2c1cc(OC)c(OC)c(OC)c1 (centres undefined),< 0.01 µM,< 0.01 µM,< 0.01 µM,> 100 µM,< 0.01,> 100,< 0.01 µM,> 100 µM,< 0.01 µM,< 0.0116 µM,< 0.01 µM,> 100 µM,< 0.01 µM,0.0277 µM,< 0.01,> 100 µM
CCOc1cc(C(C)(C)C)ccc1C1=N[C@H](c2ccc(Cl)cc2)[C@H](c2ccc(Cl)cc2)N1C(=O)N1CCN(CC#Cc2cccc3c2CN([C@@H]2CCC(=O)NC2=O)C3=O)CC1,0.0192 µM,0.0797 µM,0.301 µM,> 53.5 µM,4.5,> 54.3,5.47 µM,> 47 µM,0.868 µM,2.2 µM,0.673 µM,14.7 µM,1.79 µM,> 100 µM,0.642,> 100 µM
COCCOC(=O)C1=C(O)c2ccccc2S(=O)(=O)N1C,,> 100 µM,,> 100 µM,,> 100,,> 100 µM,,> 100 µM,,> 100 µM,,> 100 µM,,> 100 µM
[N-]=[N+]=NCCCn1c2c(c3ccc([N+](=O)[O-])cc3c1=O)C(=O)c1ccccc1-2,3.57 µM,43.2 µM,75.5 µM,> 100 µM,> 100,> 100,4.28 µM,> 100 µM,2.39 µM,9.31 µM,29.6 µM,> 100 µM,> 100 µM,> 100 µM,,
C#CC1(O)C(COP(=O)(O)OCC(COP(=O)(O)OCC2OC(n3cc(F)c(=O)[nH]c3=O)CC2O)OCCCCCCCCCCCCCCCCCC)OC(n2ccc(N)nc2=O)C1O (centres undefined),0.32 µM,,0.134 µM,> 100 µM,5.36,> 52.6,0.135 µM,> 100 µM,0.275 µM,9.29 µM,0.196 µM,2.69 µM,0.147 µM,> 40.4 µM,,
Cn1c(Cl)c(/C=C2/C(=O)Nc3ccccc32)c2ccccc21,0.588 µM,12.7 µM,0.16 µM,11.9 µM,3.85,27.8,0.758 µM,14.9 µM,0.0964 µM,1.23 µM,0.13 µM,7.1 µM,0.371 µM,3.57 µM,,
COc1cc(Nc2ncccc2C(=O)Nc2nc3ccc(F)cc3s2)cc(OC)c1OC,4.61 µM,> 100 µM,4.38 µM,> 100 µM,25.6,> 100,3.01 µM,> 100 µM,1.63 µM,5.14 µM,,,2.92 µM,> 100 µM,2.97,> 100 µM
Nc1ncc(-c2cnn(C3CCNCC3)c2)cc1-c1nc2cc(Cl)ccc2o1,1.66 µM,3.23 µM,0.495 µM,1.71 µM,1.77,3.22,1.38 µM,2.73 µM,1.66 µM,3.08 µM,1.96 µM,3.65 µM,,,,
CC(=O)OC1OC([C@H]2c3cccc(O)c3C(=O)c3c(O)cc(C)cc32)C(O)C(O)C1O (some centres undefined),0.0188 µM,0.0671 µM,0.0385 µM,2 µM,< 0.0296,4.71,< 0.0164 µM,0.244 µM,,,< 0.0219 µM,1.41 µM,0.0383 µM,5.95 µM,0.0308,0.119 µM
Cc1cc(Cl)ccc1OCC(=O)Nc1nc2c(Cl)cccc2s1,16.2 µM,91.9 µM,6.49 µM,> 100 µM,50.4,> 100,8.32 µM,25.2 µM,> 100 µM,> 100 µM,7.41 µM,> 100 µM,23.8 µM,> 100 µM,,

# Source: PubChem BioAssay (NCI)
